# Experimental data taken from the Kinase Knowledgebase extract (Sharma et al. 2016).
# Target: MAPK14;MAPK11;MAPK12 (human) (UniProt Q16539)
# Experiment: Inhibition of p38 Kinase Activity
row,IC50 [µM],Structure (SMILES)
1,< 1,Cc1ccc(C(N)=O)cc1Nc1nc(N[C@H]2CCNC2)nc(N(C)CC(C)c2ccc(Cl)cc2)n1 (stereo not given in full)
2,< 1,CCN1CCC[C@@H](Nc2nc(Nc3cc(C(N)=O)ccc3C)nc(N(C)CC(C)(C)C)n2)C1
3,< 1,CONC(=O)c1ccc(C)c(Nc2nc(NCC3CCC(=O)N3)nc(N(C)CC(C)(C)C)n2)c1 (stereo not given)
4,< 10,C[C@H](CNc1nc(Nc2ccc3ncsc3c2)nc(N(C)CCN(C)C(=O)CCC(=O)O)n1)c1ccccc1
5,< 30,CNC(=O)c1ccc(C)c(Oc2nc(N(C)CC(C)(C)C)nc(N3CCCN(C)CC3)n2)c1
6,< 10,CC1(C)C2CCC(CNc3nc(Nc4ccc5[nH]nnc5c4)nc(N4CCNCC4)n3)C1C2 (stereo not given)
7,< 10,CC(Cc1ccccc1)Nc1nc(Nc2ccc3ncsc3c2)nc(N(C)C)n1 (stereo not given)
8,< 1,Cc1ccc(C(N)=O)cc1Nc1nc(N[C@H]2CCN(C(C)c3ccccn3)C2)nc(N(C)CC(C)C)n1 (stereo not given in full)
9,< 30,Cc1ccc(C(N)=O)cc1Oc1nc(N[C@@H]2CCNC2)nc(N(C)CC(C)(C)C)n1
10,< 1,Cc1ccc(C(N)=O)cc1Nc1nc(N[C@H]2CCNC2)cc(N(C)CC(C)C)n1
11,< 1,Cc1ccc(C(N)=O)cc1Nc1nc(N[C@H]2CCNC2)nc(OCC(C)(C)C)n1
12,< 1,CONC(=O)c1ccc(C)c(Nc2nc(NCCNc3ccccc3)nc(N(C)CC(C)(C)C)n2)c1
13,< 30,CONC(=O)c1ccc(C)c(Sc2nc(N[C@@H]3CCNC3)nc(N(C)CC(C)(C)C)n2)c1
14,< 1,CCC(C)N1CC[C@@H](Nc2nc(Nc3cc(C(N)=O)ccc3C)nc(N(C)CC(C)(C)C)n2)C1 (stereo not given in full)
15,< 1,CCONC(=O)c1ccc(C)c(Nc2nc(N(C)CC(C)(C)C)cc(N3CCCN(C)CC3)n2)c1
16,< 1,Cc1ccc(C(N)=O)cc1Nc1nc(N[C@H]2CCN(C(C)c3ccncc3)C2)nc(N(C)CC(C)C)n1 (stereo not given in full)
17,< 10,CNC(=O)C1CCN(c2nc(NC[C@@H]3CC[C@@H]4C[C@H]3C4(C)C)nc(Nc3ccc4ncsc4c3)n2)CC1
18,< 10,CC(CN(C)c1nc(Nc2ccc3ncsc3c2)nc(N(C)C)n1)c1ccccc1 (stereo not given)
19,< 1,Cc1ccc(C(N)=O)cc1Nc1nc(NCC(C)(C)C)nc(N[C@@H]2CCNC2)n1
20,< 1,Cc1ccc(C(N)=O)cc1Nc1nc(NC2CCCCNC2)nc(N(C)CC(C)(C)C)n1 (stereo not given)
21,< 1,CONC(=O)c1ccc(C)c(Nc2nc(NCCN3CCOCC3)nc(N(C)CC(C)(C)C)n2)c1
22,< 1,Cc1cc(Cl)c(C(N)=O)cc1Nc1nc(N[C@H]2CCNC2)nc(N(C)CC(C)C)n1
23,< 10,COC1CCCC(C(=O)N2CCN(c3nc(NCC(C)c4ccccc4)nc(Nc4ccc5ncsc5c4)n3)CC2)C1 (stereo not given)

row,IC50 [µM],Structure (SMILES)
1,< 1,Cc1ccc(C(N)=O)cc1Nc1nc(N[C@H]2CN[C@@H](CO)C2)nc(N(C)CC(C)(C)C)n1
2,< 10,COC1CCCC(C(=O)N(C)CCCN(C)c2nc(NCC(C)c3ccccc3)nc(Nc3ccc4ncsc4c3)n2)C1 (stereo not given)
3,< 1,CONC(=O)c1ccc(C)c(Nc2nc(N(C)CC(C)(C)C)nc(-n3ccnc3)n2)c1
4,< 1,Cc1ccc(C(N)=O)cc1Nc1nc(NCC2CC3CCC2C3)nc(N[C@H]2CCNC2)n1 (stereo not given in full)
5,< 1,Cc1ccc(C(N)=O)cc1Nc1nc(N[C@H]2CCN(C(C)C)C2)nc(N(C)CC(C)C)n1
6,< 1,Cc1ccc(C(N)=O)cc1Nc1nc(N[C@H]2CCN(C(C)c3cccnc3)C2)nc(N(C)CC(C)C)n1 (stereo not given in full)
7,< 1,Cc1ccc(C(N)=O)cc1Nc1nc(N[C@@H]2CCNC2)nc(N2CCC(C)(C)CC2)n1
8,< 1,CCOC(=O)Nc1ccc(C)c(Nc2nc(N[C@H]3CCNC3)nc(N(C)CC(C)(C)C)n2)c1
9,< 1,Cc1cccc(CN2CC[C@H](Nc3nc(Nc4cc(C(N)=O)ccc4C)nc(N(C)CC(C)C)n3)C2)c1
10,< 1,CONC(=O)c1ccc(C)c(Nc2nc(N[C@H]3CCNC3)nc(N(C)CC(C)(C)C)n2)c1
11,< 1,Cc1ccc(C(N)=O)cc1Nc1nc(NCCc2ccc3c(c2)OCO3)nc(N[C@H]2CCNC2)n1
12,< 1,CCONC(=O)c1ccc(C)c(Nc2nc(N(C)CC(C)(C)C)nc(N3CCCN(C)CC3)n2)c1
13,< 10,CC(CNc1nc(Nc2ccc3ncsc3c2)nc(N(C)CCCN(C)C(=S)NC2CCCCC2)n1)c1ccccc1 (stereo not given)
14,< 1,CONC(=O)c1ccc(C)c(Nc2nc(NCCn3cccn3)nc(N(C)CC(C)(C)C)n2)c1
15,< 1,Cc1ccc(C(N)=O)cc1Nc1nc(NCC2CCCC2)nc(N[C@H]2CCNC2)n1
16,< 1,Cc1ccc(C(N)=O)cc1Nc1nc(N[C@H]2CCN(Cc3ccc(Cl)c(Cl)c3)C2)nc(N(C)CC(C)C)n1
17,< 1,CONC(=O)c1ccc(C)c(Nc2nc(N[C@@H]3CCCNC3=O)nc(N(C)CC(C)(C)C)n2)c1
18,< 1,Cc1ccc(C(N)=O)cc1Nc1nc(NCC2CCC2)nc(N[C@H]2CCNC2)n1
19,< 1,CCCc1ccc(C(N)=O)cc1Nc1nc(N[C@H]2CCNC2)nc(N(C)CC(C)(C)C)n1
20,< 10,CCC(CNc1nc(Cl)nc(Nc2ccc3ncsc3c2)n1)c1ccccc1 (stereo not given)
21,< 1,CCc1ccc(C(N)=O)cc1Nc1nc(NCC(C)(C)C)nc(N[C@H]2CCNC2)n1
22,< 10,CNc1nc(Nc2ccc3ncsc3c2)nc(N[C@H](C)C2CCCCC2)n1
23,< 1,CNC(=O)c1ccc(C)c(Nc2nc(NCC(C)(C)C)nc(N[C@H]3CCNC3)n2)c1

row,IC50 [µM],Structure (SMILES)
1,< 10,CC(CNc1nc(Nc2ccc3ncsc3c2)nc(N2CCN(C(=O)C3CCOC3)CC2)n1)c1ccccc1 (stereo not given)
2,< 1,CCONC(=O)c1ccc(C)c(Nc2nc(N[C@H]3CCNC3)nc(N(C)CC(C)(C)C)n2)c1
3,< 10,COc1ccc(C(=O)N2CCN(c3nc(NCC(C)c4ccccc4)nc(Nc4ccc5ncsc5c4)n3)CC2)cc1 (stereo not given)
4,< 10,CNC(=O)CCC(=O)N1CCN(c2nc(NCC3CC[C@H]4C[C@@H]3C4(C)C)nc(Nc3ccc4ncsc4c3)n2)CC1 (stereo not given in full)
5,< 10,CC1(C)C2CCC(CNc3nc(Nc4ccc5ncsc5c4)nc(N4CCN(C(=O)CCC(=O)O)CC4)n3)C1C2 (stereo not given)
6,< 1,Cc1ccc(C(N)=O)cc1Nc1nc(NC2CCNC2)nc(N(C)CC(C)(C)C)n1 (stereo not given)
7,< 1,CCCCNc1nc(Nc2cc(C(N)=O)ccc2C)nc(N[C@H]2CCNC2)n1
8,< 10,CC(C)OCCNc1cc(Cl)nc(-n2cnc3ccccc32)n1
9,< 1,Cc1ccc(C(N)=O)cc1Nc1nc(NCC2(c3ccc(Cl)cc3)CC2)nc(N[C@H]2CCNC2)n1
10,< 10,CC(C)C(=O)N1CC2CC1CN2c1nc(NCC(C)c2ccccc2)nc(Nc2ccc3ncsc3c2)n1 (stereo not given)
11,< 10,CC(CNc1nc(Nc2ccc3ncsc3c2)nc(N(C)C)n1)c1ccc(Cl)cc1 (stereo not given)
12,< 1,Cc1cccc(NC(=O)c2ccc(C)c(Nc3nc(N[C@H]4CCNC4)nc(N(C)CC(C)(C)C)n3)c2)c1
13,< 10,CC(CNc1nc(Nc2ccc3ncsc3c2)nc(N(C)CCCN(C)C(=O)c2cccnc2)n1)c1ccccc1 (stereo not given)
14,< 1,Cc1ccc(C(N)=O)cc1Nc1nc(NC2CCCC2)nc(N(CCO)Cc2ccccc2)n1
15,< 10,CNc1nc(NCCOC(C)C)nc(Nc2ccc3ncsc3c2)n1
16,< 10,CC(CNc1nc(Nc2ccc3ncsc3c2)nc(N2CC3CC2CN3C(=O)c2cccnc2)n1)c1ccccc1 (stereo not given)
17,< 10,CC(CNc1nc(Nc2ccc3ncsc3c2)nc(N2CCN(C(=O)c3ccco3)CC2)n1)c1ccccc1 (stereo not given)
18,< 1,Cc1ccc(C(=O)NC2CCCCC2)cc1Nc1nc(N[C@H]2CCNC2)nc(N(C)CC(C)(C)C)n1
19,< 10,CC(CNc1nc(Nc2ccc3ncsc3c2)nc(N2CCN(C(=O)c3ccc(-c4ccccc4)cc3)CC2)n1)c1ccccc1 (stereo not given)
20,< 10,C[C@H](CNc1nc(Cl)nc(Nc2ccc3ncsc3c2)n1)c1ccccc1
21,< 10,CN(CCN(C)c1nc(NCC2CCC3CC2C3(C)C)nc(Nc2ccc3ncccc3c2)n1)C(=O)CCC(=O)O (stereo not given)
22,< 1,Cc1ccc(C(N)=O)cc1Nc1nc(NC2CCCN(C(C)C)C2)nc(N(C)CC(C)C)n1 (stereo not given)
23,< 10,CC(=O)N1CC2CC1CN2c1nc(NCC(C)c2ccccc2)nc(Nc2ccc3ncsc3c2)n1 (stereo not given)

row,IC50 [µM],Structure (SMILES)
1,< 1,CCNC(=O)c1ccc(C)c(Nc2nc(NCC(C)(C)C)nc(N[C@H]3CCNC3)n2)c1
2,< 1,CNC(=O)c1ccc(C)c(Nc2nc(N[C@H]3CCN(C(C)CO)C3)nc(N(C)CC(C)(C)C)n2)c1 (stereo not given in full)
3,< 1,Cc1ccc(C(=O)Nc2ccccc2)cc1Nc1nc(N[C@H]2CCNC2)nc(N(C)CC(C)(C)C)n1
4,< 1,Cc1ccc(C(N)=O)cc1Nc1nc(N[C@H]2CCN(C(C)c3ccccc3)C2)nc(N(C)CC(C)C)n1 (stereo not given in full)
5,< 1,Cc1ccc(C(N)=O)cc1Nc1nc(NC[C@H]2CCCN2)nc(N(C)CC(C)C)n1
6,< 1,Cc1ccc(C(N)=O)cc1Nc1nc(N[C@H]2CCN(C3CCCC3)C2)nc(N(C)CC(C)C)n1
7,< 1,CC1(C)[C@@H]2CC[C@@H](CNc3nc(Nc4cc(C(N)=O)ccc4Cl)nc(NC4CCNC4)n3)[C@H]1C2 (stereo not given in full)
8,< 1,Cc1ccc(C(N)=O)cc1Nc1nc(N[C@H]2CCCC[C@H]2NC(C)C)nc(N(C)CC(C)(C)C)n1
9,< 1,COc1cccc(NC(=O)c2ccc(C)c(Nc3nc(N[C@H]4CCNC4)nc(N(C)CC(C)(C)C)n3)c2)c1
10,< 1,Cc1ccc(C(=O)NC#N)cc1Nc1nc(N[C@H]2CCNC2)nc(N(C)CC(C)(C)C)n1
11,< 1,CC(C)CN(C)c1nc(NC2CCN(CC3CCNCC3)C2)nc(NC2CC(C(N)=O)CCC2C)n1 (stereo not given)
12,< 1,Cc1ccc(C(=O)NCCC(C)C)cc1Nc1nc(N[C@H]2CCNC2)nc(N(C)CC(C)(C)C)n1
13,< 1,Cc1ccc(C(=O)Nc2ccc(F)cc2)cc1Nc1nc(N[C@H]2CCNC2)nc(N(C)CC(C)(C)C)n1
14,< 1,Cc1ccc(CC2CC(Nc3nc(Nc4cc(C(N)=O)ccc4C)nc(N(C)CC(C)(C)C)n3)CN2)cc1 (stereo not given)
15,< 10,CNCCN(C)c1nc(NCC(C)c2ccccc2)nc(Nc2ccc3nc(C)sc3c2)n1 (stereo not given)
16,< 1,Cc1ccc(C(N)=O)cc1Nc1nc(NC2CCN(C(C)(C)C)C2)nc(N(C)CC(C)C)n1 (stereo not given)
17,< 1,Cc1cccc(CN2CC[C@H](Nc3nc(Nc4cc(C(N)=O)ccc4C)nc(N(C)CC(C)C)n3)C2)n1
18,< 1,Cc1ccccc1NC(=O)c1ccc(C)c(Nc2nc(N[C@H]3CCNC3)nc(N(C)CC(C)(C)C)n2)c1
19,< 1,COCC(C)N1CC[C@@H](Nc2nc(Nc3cc(C(N)=O)ccc3C)nc(N(C)CC(C)(C)C)n2)C1 (stereo not given in full)
20,< 10,CC(C)c1nc(NC[C@@H]2CC[C@@H]3C[C@H]2C3(C)C)nc(Nc2ccc3ncsc3c2)n1
21,< 10,CNCCN(C)c1nc(NCc2ccc3c(c2)OCO3)nc(NCC(C)c2ccccc2)n1 (stereo not given)
